# “Also recorded” adds a separate entry of the source.
# How the values were obtained:
# [1] = tested on: zebrafish (Danio rerio) embryos; assay: phenotypic assay with 16-cell zebrafish embryos; type: in vivo; conditions: 60 μM, 18 h (24 h in FIG. 22B) post-fertilization
# Protocol: To determine the effect of these compounds on whole organism development, a phenotypic assay was performed using 16-cell zebrafish (Danio rerio) embryos (Stockwell et al. Chem. Biol. 1999, 6, 71-83) with 1300 compounds from the 1,3-dioxane library. […] The folded notochord phenotype has also been observed through genetic mutant screens^32 for the gul^m208 and lev^m531 mutations. The 1,3-diol (13) may target these gene products or other proteins involved in the same biological pathway. Dissection of the pathways involved in notochord development may be complemented by small molecule ligands for proteins in those pathways.
# [2] = tested on: α-tubulin acetylation in the presence of ITSA1; conditions: cited from earlier work
# [3] = tested on: microtubules in A549 cells; assay: microtubule stability to nocodazole, cold or calcium depolymerization and repolymerization; type: cell-based, human; conditions: tubacin 2 μM, ITSA1 50 μM
# Protocol: Detection of acetylated α-tubulin and acetylated histones by immunofluorescence was performed as described in Example 6 above. For determining microtubule stability, A549 cells were treated as indicated, fixed in glutaraldehyde, and stained for acetylated α-tubulin and total α-tubulin in antibody dilution buffer (ADB, Tris-buffered saline (TBS), 0.15 M NaCl, 0.02 M Tris-Cl, pH 7.4, with 2% bovine serum albumin and 0.1% Triton-X 100). For cold-depolymerization, cells were incubated at 4° C. or 37° C. for an additional 90 minutes before fixation. For calcium depolymerization, cells were incubated at 37° C. for 10 minutes in a microtubule-stabilizing buffer (0.2% NP-40, 5 mM MgCl2, 2 mM EGTA, 2 M glycerol, 100 mM PIPES, pH 6.8) with and without the addition of CaCl2 (2 mM) before glutaraldehyde fixation. For co-localization experiments, biotubacin (50 μM) treated A549 cells were fixed in 3.7% formaldehyde in TBS and processed as for detecting acetylated α-tubulin (See Example 6 above) with biotubacin detected using streptavidin-TR (1:500). HDAC6 was detected using a rabbit polyclonal antibody (1:250-1:750; C.M.G., unpublished data) under the conditions used to detect acetylated α-tubulin (See Example 6 above). Filamentous actin in HT-1080 cells was detected using TR-conjugated phalloidin (1 μg/mL), and depolymerized actin using FITC-conjugated deoxyribonuclease (10 μg/mL), following fixation in 3.7% formaldehyde in TBS. p58 (1:100) in NIH-3T3 cells was detected after fixation in 3.7% formaldehyde in TBS. Images for these experiments were collected on a Zeiss LSM510 confocal scanning laser microscope at the appropriate wavelengths using the accompanying software and processed with Adobe Photoshop. Deconvoluted serial images of TSA and DMSO treated A549 cells were obtained by taking sections (8μ) on a Zeiss Axioskop 2 microscope using an AxioCam camera and the accompanying software. Rat hippocampal neuronal cultures were fixed at room temperature for 15 min in phosphate-buffered saline (PBS) containing 4% paraformaldehyde. […]
# [4] = tested on: α-tubulin deacetylation; assay: acetylated α-tubulin in cells (AcTubulin cytoblot, immunofluorescence, Western blot); type: cell-based, human; conditions: A549 (also BS-C-1) cells, tubacin/JCWII114, niltubacin/JCWII153 2 μM, TSA 100 nM-4 μM, library ~2-5 μM, 18 h
# Protocol: (§1) A549 cells were seeded at a density of 4,000 cells/50 μl in DMEM+ in white tissue culture-treated 384-well plates (Nalge Nunc) using a Multidrop 384 liquid dispenser (Labsystems). Library small molecules were pinned twice (100-150 nl/pin) from ˜1 mM stock solutions (DMSO) and incubated for 18 hours. For the ITSA1+AcTubulin assay, ITSA1 (50 μM) was added four hours after pin-transfer of library molecules. Media was aspirated with a 16-channel wand. For the acetylated α-tubulin cytoblot (AcTubulin), 40 μl/well of fixation solution (3.7% formaldehyde (1:10 from 37% stock) in Tris-buffered saline (TBS, 0.15 M NaCl, 0.02 M Tris-Cl, pH 7.4) was added and plates incubated for twenty minutes at room temperature. After aspiration, 30 μl 100% methanol (−20° C.) was added and incubated for five minutes at room temperature. After aspirating and washing three times with 90 μl of antibody dilution buffer (ADB, TBS/2% bovine serum albumin, 0.1% TritonX-100) the wells were blocked for twenty minutes in ADB. After aspirating, 20 μl/well of ADB containing anti-acetylated α-tubulin antibody (mouse; 1:1000) and anti-mouse IgG horseradish peroxidase (HRP)-conjugated antibody (1:750) was added and incubated overnight (4° C.). For the anti-acetyl lysine cytoblot (AcLysine), 40 μl/well of fixation solution (95% ethanol/5% acetic acid, −20° C.) was added and plates incubated for five minutes at room temperature. Wells were aspirated, washed, and blocked in ADB as for the AcTubulin protocol. After aspirating, 20 μl/well of ADB containing anti-acetylated lysine (rabbit; 1:375) and anti-rabbit IgG-HRP conjugated antibody (1:750) was added and incubated overnight (4° C.). For the anti-acetylated histone H3 (AcHistH3) and anti-acetylated histone H4 (AcHistH4) cytoblots, cells were fixed, washed, and blocked in ADB as for the AcLysine cytoblot. After aspirating, 20 μl/well of ADB containing anti-acetylated histone H3 antibody (rabbit, 1:500) or anti-acetylated histone H4 antibody (rabbit, 1:500) was added and incubated for two hours at room temperature. Wells were aspirated and washed twice with 80 μl of ADB. After aspirating, 20 μl/well of ADB containing anti-rabbit IgG-HRP conjugated antibody (1:1000) was added and incubated for two hours (room temperature). For the AcTubulin and AcLysine assays, plates were washed three times with TBS before adding 20 μl/well of enhanced chemiluminescent (ECL) mixture. For the AcHistH3 and AcHistH4 assays, plates were washed three times with 80 μl TBS with 1% Triton X-100 and once with 80 μl TBS before adding 20 μl/well of ECL mixture. Plates were read on an Analyst plate reader (LJL Biosystems) with an integration time of 0.1 seconds.
# (§2) 1,3-dioxanes from single polystyrene macrobeads were prepared as 1-2 mM stock solutions in DMSO as described [Hubbert, C., Guardiola, A., Shao, R., Kawaguchi, Y., Ito, A., Nixon, A., Yoshida, M., Wang, X. F., and Yao, T. P. (2002). HDAC6 is a microtubule-associated deacetylase. Nature 417, 455-458]. Bead decoding and structure determination were as described [See for example, Hubbert, C., Guardiola, A., Shao, R., Kawaguchi, Y., Ito, A., Nixon, A., Yoshida, M., Wang, X. F., and Yao, T. P. (2002). HDAC6 is a microtubule-associated deacetylase. Nature 417, 455-458; and Piperno, G., LeDizet, M., and Chang, X. J. (1987). Microtubules containing acetylated alpha-tubulin in mammalian cells in culture. J. Cell Biol. 104, 289-302]. Small molecules (˜2-5 μM) of interest were retested using a sample from the plate of stock solutions by fluorescence microscopy and comparison to the effects of trichostatin (300 nM to 1 μM).
# (§3) A549 cells were seeded at a density of 50,000/200 μl in DMEM+ on the surface of glass coverslips on top of Parafilm in a 10 cm dish and allowed to attach overnight. For detection of acetylated α-tubulin, cells were permeabilized and fixed with 100 mM K-PIPES, pH 6.8, 10 mM EGTA, 1 mM MgCl2, 0.2% triton X-100, 0.2% glutaraldehyde for fifteen minutes. […]
# [5] = tested on: histone deacetylation; assay: acetylated lysine / acetylated histone in cells (AcLysine cytoblot, immunofluorescence, Western blot); type: cell-based, human; conditions: A549 (also BS-C-1) cells, tubacin, niltubacin 2 μM, histacin 20 μM, library ~2-5 μM, 18 h
# Protocol: as §1, §2, §3
# [6] = tested on: α-tubulin acetylation in the presence of ITSA1; assay: ITSA1+AcTubulin assay: suppression of induced acetylation by ITSA1; type: cell-based, human; conditions: ITSA1 50 μM, A549 cells
# Protocol: A549 cells were seeded at a density of 4,000 cells/50 μl in DMEM+ in white tissue culture-treated 384-well plates (Nalge Nunc) using a Multidrop 384 liquid dispenser (Labsystems). Library small molecules were pinned twice (100-150 nl/pin) from ˜1 mM stock solutions (DMSO) and incubated for 18 hours. For the ITSA1+AcTubulin assay, ITSA1 (50 μM) was added four hours after pin-transfer of library molecules. Media was aspirated with a 16-channel wand. […] Plates were read on an Analyst plate reader (LJL Biosystems) with an integration time of 0.1 seconds.
# Bromodeoxyuridine labeling and fluorescence-activated cell sorting (FACS) were performed as described (K. M. Koeller et al., Chemistry & Biology, 10 (5) (2003) pp. 397-410). […]
structure (smiles),measurement,setting,value
"[O-][n+]1ccccc1SC[C@@H](O)[C@@H](c1ccccc1)[C@@H](O)c1ccc(CO)cc1 (racemic) [compound 13, (±)-(1R,2S,3S)-1-[4-(hydroxymethyl)phenyl]-4-[(1-oxido-2-pyridinyl)thio]-2-phenyl-1,3-butanediol]",developmental phenotype of zebrafish embryos,[1],causes a wavy notochord phenotype; also recorded: developed folds in the anterior trunk region of the notochord
"O=C(c1ccc(Cl)cc1Cl)n1nnc2ccccc21 [ITSA1, reference compound]","suppression by ITSA1, stated as known",[2],suppresses (reduces) the ability of TSA to increase acetylation levels of both α-tubulin and histones
same,polymerization of microtubules after removal of nocodazole,[3],neither tubacin nor ITSA1 (50 μM; 30 minutes) prevents the repolymerization of microtubules; also recorded: neither tubacin nor ITSA1 prevented the polymerization of microtubules
Nc1ccccc1NC(=O)CCCCCC(=O)Nc1cccc([C@@H]2O[C@H](CN3CCN(Cc4ccccc4)CC3)C[C@H](c3ccc(CO)cc3)O2)c1 [histacin],effect on tubulin deacetylation / α-tubulin acetylation in cells,[4],without affecting α-tubulin acetylation levels
same,effect on tubulin deacetylation / α-tubulin acetylation in cells,[4]; listed as 410 F1,no effect on α-tubulin acetylation
same,effect on histone deacetylation / lysine or histone acetylation in cells,[5],increased acetylated histone levels
same,effect on histone deacetylation / lysine or histone acetylation in cells,[5]; listed as 410 F1,strongly increased lysine acetylation
same,suppression of the induced acetylation by ITSA1,[6],cannot be suppressed by ITSA1
